Laboratory results as given in patent US20100260694A1, “Methionine Sulfoxide Peptide, Compositions And Methods Of Use” (priority 2009, published 2010).

How the values were obtained:
Msr [1] = assay: Msr in NHEK, confirmation by Western blotting; type: cell-based, human; conditions: overnight incubation
Description: (§1) NHEK cells were incubated overnight in culture medium (control) and in culture medium containing oxidized peptide and in culture medium containing unoxidized peptide (control). Concentrations (mg/mL) of the oxidized peptide included 0.01, 0.1 and 0.25. The unoxidized peptide (i.e. Met-enkephalin) was tested only at 0.25 mg/mL. After incubation, mRNA was extracted from the cells and cDNA was prepared by reverse transcription polymerase chain reaction (RT-PCR). Samples were probed for Msr via gel electrophoresis using β-microglobulin as a control.

Msr [2] = assay: Msr expression in NHEK by RT-PCR and gel electrophoresis; type: cell-based, human; conditions: for level of Msr compared to a housekeeping gene: keratinocytes, RT-PCR
Description: The first material tried was oxidized methionine (the sulfoxide form). […] However, in an experiment performed in February of 2004, an oxidized polypeptide gave very good results. Investigations continued along those lines.
as §1

elastase = target: T1, elastase (Sus scrofa, UniProt P00772); assay: Elastase activity assay (Molecular Probes) adapted for inhibition with α1-antitrypsin; type: biochemical
T1 construct: purchased Molecular Probes
Description: (§2) Methods: An elastase assay from Molecular Probes was utilized and adapted for inhibition with α1-antitrypsin. Fluorescence was measured by excitation at 485 nm and emission at 525 nm in a CytoFluor plate reader.
This was achieved by incubating 0.1 mg/ml elastin and 0.05 units/ml elastase with α1-antitrypsin in a dose-dependent manner (2.5-50 ug/sample). The results are shown in FIG. 8, where con=control; E=elastase; I=inhibitor (included with assay); AT=α1-antitrypsin.
This was done by oxidizing 10 μg of α1-antitrypsin with hydrogen peroxide.
(§3) This was achieved by incubating the A1AT that had been oxidized in 30 mM H2O2 with 0.7 mg/ml msrA and 10 mM DTT for 2 hours. […] We start with 100% elastase. As before, α1-antitrypsin (AT) removes about 90% of the elastase activity (bar labeled Elastase+AT).

[3] = UV spectrum of the peptide; type: physicochemical; conditions: at 290 nm
[4] = tested on: Epidermal Full Thickness 200 (EFT 200) living skin models; assay: Sunburn Cell production in UVB-irradiated EFT 200 living skin models; type: cell-based; conditions: 1 mg/ml for 48 hours, then 100 mJ/cm^2 UVB
Description: Methods: Epidermal Full Thickness 200 (EFT 200) living skin models were obtained from MatTek and incubated for 48 hours in media with or without 1 mg/ml of the MetO-enkephalin. The oxidized peptide can be stored at room temperature. Because the peptide is already oxidized, it has relative low reactivity in storage. Two ml of media were added beneath the living skin models, which were situated on a transwell membrane to allow the maintenance of an air/aqueous interface. After 48 hours, the living skin models were exposed to 100 mJ/cm^2 UVB, re-fed, and incubated overnight. The next day, the samples were fixed in 10% formalin and sent to Paragon Bioservices for histological sectioning and H&E staining. Five contiguous microscopic fields for each section were evaluated for the presence of SBC by counting the number of SBC and uninvolved cells and expressing SBC as a percentage of the total. Sunburn Cells are characterized by eosinophilic staining of the cytoplasm and pyknotic nuclei (condensed chromatin).

keratinocytes = assay: Cytotoxicity in keratinocytes; type: cell-based; conditions: various concentrations, epidermal cells / keratinocytes
oxidized α1-antitrypsin = oxidized α1-antitrypsin (Homo sapiens, UniProt P01009); assay: Reversal of α1-antitrypsin oxidation by msrA, read out in elastase activity assay; type: biochemical; conditions: oxidized A1AT incubated with 0.7 mg/mL MsrA and 10 mM DTT for 2 hours
Description: as §2, §3

T1 sequence (P00772 27-266): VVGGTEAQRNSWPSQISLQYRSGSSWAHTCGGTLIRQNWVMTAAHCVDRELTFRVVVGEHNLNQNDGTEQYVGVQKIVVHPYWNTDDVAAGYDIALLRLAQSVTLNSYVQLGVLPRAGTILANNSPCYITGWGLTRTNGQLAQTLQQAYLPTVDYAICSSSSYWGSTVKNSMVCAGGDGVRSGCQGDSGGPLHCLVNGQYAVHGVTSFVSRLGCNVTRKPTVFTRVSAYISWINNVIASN
oxidized α1-antitrypsin, sequence (P01009 25-418): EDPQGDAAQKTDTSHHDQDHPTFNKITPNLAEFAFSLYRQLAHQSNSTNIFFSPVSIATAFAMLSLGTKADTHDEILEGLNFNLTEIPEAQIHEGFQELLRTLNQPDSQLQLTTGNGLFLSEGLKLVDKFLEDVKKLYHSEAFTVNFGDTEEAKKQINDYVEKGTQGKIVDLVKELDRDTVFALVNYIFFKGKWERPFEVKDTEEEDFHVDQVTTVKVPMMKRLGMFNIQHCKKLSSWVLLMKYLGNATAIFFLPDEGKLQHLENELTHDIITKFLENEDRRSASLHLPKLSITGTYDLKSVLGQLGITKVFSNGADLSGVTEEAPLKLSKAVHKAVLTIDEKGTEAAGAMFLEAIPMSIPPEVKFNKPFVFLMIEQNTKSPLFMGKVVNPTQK

## CSCC[C@H](NC(=O)[C@@H](Cc1ccccc1)NC(=O)CNC(=O)CNC(=O)[C@H](N)Cc1ccc(O)cc1)C(=O)O [Met-enkephalin, Met- enkephalin, reference compound]
Msr [1]
  Msr mRNA in treated cells by Western blotting: no significant increases of Msr mRNA
Msr [2]; NHEK, overnight incubation, 0.25 mg/mL
  increase in Msr expression: no significant increase

## C[S+]([O-])CC[C@H](N)C(=O)O (some centres unmarked) [oxidized methionine, methionine sulfoxide]
Msr [2]
  level of Msr compared to a housekeeping gene: not significantly raised

## ATox: α1-antitrypsin oxidized in 30 mM H2O2
elastase; bar Elastase+ATox, FIG. 10, oxidized in 30 mM H2O2
  elastase activity with oxidized α1-antitrypsin: all of the elastase activity returns

## Oxidized bovine serum albumin: Oxidized bovine serum albumin, a comparatively large protein
Msr [2]
  level of Msr compared to a housekeeping gene: without success

## Tyr - Gly - Gly - Phe - MetO [MetO-enkephalin]
[3]
  extinction coefficient: 145.5
  k-value of absorbance: 0.24
[4]
  average percent reduction in SBC from both trials: 31.1%
keratinocytes
  cytotoxicity: low cytotoxicity
Msr [1]
  Msr mRNA in treated cells by Western blotting: increases of Msr mRNA
Msr [2]; NHEK, overnight incubation, oxidized peptide concentration 0.01%
  average increase in Msr expression: 18%
Msr [2]; NHEK, overnight incubation, oxidized peptide concentration 0.1%
  average increase in Msr expression: 28%
Msr [2]; NHEK, overnight incubation, oxidized peptide concentration 0.25%
  average increase in Msr expression: 25.4%

## α1-antitrypsin: serin protease inhibitor made in the liver, inhibits a wide variety of proteases
elastase; 10 μg α1-antitrypsin oxidized with 30 mM H2O2, 3 hours, ambient temperature
  elastase inhibition after oxidation with H2O2: almost all elastase inhibition provided by α1-antitrypsin, is lost
elastase; 0.1 mg/ml elastin, 0.05 units/ml elastase, α1-antitrypsin 2.5-50 ug/sample
  elastase activity (fluorescence), dose dependence: Fluorescence decreases with increasing concentration of α1-antitrypsin
elastase; bar Elastase+AT, FIG. 10
  elastase activity removed: about 90%

B1: MsrA: form of Msr involved in the reduction of the S-stereoisomer (protein, UniProt Q9UJ68 24-235, looked up)
Mitochondrial peptide …: GNSASNIVSPQEALPGRKEQTPVAAKHHVNGNRTVEPFPEGTQMAVFGMGCFWGAERKFWVLKGVYSTQVGFAGGYTSNPTYKEVCSEKTGHAEVVRVVYQPEHMSFEELLKVFWENHDPTQGMRQGNDHGTQYRSAIYPTSAKQMEAALSSKENYQKVLSEHGFGPITTDIREGQTFYYAEDYHQQYLSKNPNGYCGLGGTGVSCPVGIKK
Oxidized α1-antitrypsin
  re-inhibition of elastase activity: over 59%
